Target: T1, M4 (Homo sapiens, UniProt P08173)
T1 construct: expressed in transfected cells; host or cells: CHO cells
T1 sequence (P08173 1-479): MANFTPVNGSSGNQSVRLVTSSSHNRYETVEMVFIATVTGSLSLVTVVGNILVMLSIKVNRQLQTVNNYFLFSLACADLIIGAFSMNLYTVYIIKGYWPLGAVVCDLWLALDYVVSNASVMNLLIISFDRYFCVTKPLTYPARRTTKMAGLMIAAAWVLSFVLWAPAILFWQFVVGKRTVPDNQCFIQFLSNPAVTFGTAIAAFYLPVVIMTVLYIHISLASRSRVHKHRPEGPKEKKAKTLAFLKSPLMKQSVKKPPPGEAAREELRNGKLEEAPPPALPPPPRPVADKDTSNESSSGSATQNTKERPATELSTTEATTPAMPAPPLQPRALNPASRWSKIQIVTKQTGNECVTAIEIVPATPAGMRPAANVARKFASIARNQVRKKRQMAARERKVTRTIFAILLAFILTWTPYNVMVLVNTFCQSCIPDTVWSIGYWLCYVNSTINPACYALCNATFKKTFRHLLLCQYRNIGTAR
Assay: In vitro radioligand binding assay, M4, [3H]4-DAMP
Settings: human recombinant (CHO cells)
Protocol: Certain compounds were tested by in vitro binding assays using standard procedures. […] These receptors and assays are well known to those skilled in the art, as exemplified by the following: Abramovitz, M. et al. (2000), Biochem. Biophys. Acta., 1483: 285-293 (EP4, IP (PGI2)); Aharony, D. et al. (1993), Mol. Pharmacol., 44: 356-363 (NK2); Ardati, A. et al. (1997), Mol. Pharmacol., 51: 816-824 (NOP (ORL1)); Bignon, E. et al. (1999), J. Pharmacol. Exp. Ther. 289: 742-751 (CCK1 (CCKA)); Bloomquist, B. T. et al. (1998), Biochem. Biophys. Res. Commun., 243: 474-479 (GAL2); Brockhaus, M. et al. (1990), Proc. Natl. Acad. Sci. U.S.A., 87: 3127-3131 (TNF-α); Brown, G. B. (1986), J. Neurosci., 6: 2064-2070 (Na+ channel (site 2)); Buchan, K. W. et al. (1994), Brit. J. Pharmacol., 112: 1251-1257 (ETA); Cesura, A. M. et al. (1990), Mol. Pharmacol., 37: 358-366 (MAO-A); Choi, D. S. et al. (1994), FEBS Lett., 352: 393-399 (5-HT2B); Clark, A. F. et al. (1996), Invest. Ophtalmol. Vis. […]

## Fc1cccc2c1CCO[C@@H]2[C@H]1CCN1 [Compound I-96, (R)-2-((S)-5-fluoroisochroman-1-yl)azetidine]
  M4 percent inhibition of specific binding: M4 (53%)

Source: patent US10336732B2, “1-heterocyclyl isochromanyl compounds and analogs for treating CNS disorders” (Sunovion Pharmaceuticals Inc., priority 2015, dated 2019)
